Experimental data published in ChEMBL document CHEMBL1201862, “PubChem BioAssay data set” (2004).
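Compound exposure: 48 hours, 5 concentrations, 96-well plates. GI50 is the concentration that inhibits growth by half.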 Activity calls are given as the source filed them. Rule as the data show it: active = GI50 up to about 1.1 µM and inactive = higher.

Tests used:
Assay in all cases: NCI-60 cell line screen, 48 h
HCC 2998 = test system: HCC 2998
NCI-H522 = test system: NCI-H522
A498 = test system: A498
SW-620 = test system: SW-620
OVCAR-4 = test system: OVCAR-4
KM12 = test system: KM12
A549 = test system: A549
OVCAR-5 = test system: OVCAR-5
IGROV-1 = test system: IGROV-1
HOP-62 = test system: HOP-62
SK-MEL-5 = test system: SK-MEL-5
K562 = test system: K562
LOX IMVI = test system: LOX IMVI
OVCAR-8 = test system: OVCAR-8
SF-268 = test system: SF-268
TK-10 = test system: TK-10
RPMI-8226 = test system: RPMI-8226

| Compound | GI50 (HCC 2998) | GI50 (NCI-H522) | GI50 (A498) | GI50 (SW-620) | GI50 (OVCAR-4) | GI50 (KM12) | GI50 (A549) | GI50 (OVCAR-5) | GI50 (IGROV-1) | GI50 (HOP-62) | GI50 (SK-MEL-5) | GI50 (K562) | GI50 (LOX IMVI) | GI50 (OVCAR-8) | GI50 (SF-268) | GI50 (TK-10) | GI50 (RPMI-8226) |
| --- | --- | --- | --- | --- | --- | --- | --- | --- | --- | --- | --- | --- | --- | --- | --- | --- | --- |
| COc1cc2c(c(O)c1C)C(=O)CC(c1ccccc1)O2 (stereo not given) | 79.8 µM (inactive) | 50.2 µM (inactive) | 64.1 µM (inactive) | > 10 µM (inactive) | > 10 µM (inactive) | 62.8 µM (inactive) | 56.6 µM (inactive) | 39.1 µM (inactive) | 61.9 µM (inactive) | > 100 µM (inactive) | 18.2 µM (inactive) | 50.2 µM (inactive) | > 10 µM (inactive) | > 100 µM (inactive) | > 100 µM (inactive) | 32.2 µM (inactive) | – |
| O=C1C(C2=[N+]([O-])c3ccccc3C2=O)=[N+]([O-])c2ccccc21 | – | – | 25.4 µM (inactive) | 21.8 µM (inactive) | 14.5 µM (inactive) | > 10 µM (inactive) | 26.4 µM (inactive) | 94.4 µM (inactive) | 32.1 µM (inactive) | – | 17.8 µM (inactive) | 19.7 µM (inactive) | 15.6 µM (inactive) | 24.7 µM (inactive) | 28.2 µM (inactive) | 35.4 µM (inactive) | 20.2 µM (inactive) |
| [O-][Cl+3]([O-])([O-])[O-].c1ccc(-c2[o+]c(-c3ccccc3)c(-c3ccccc3)c(-c3ccccc3)c2-c2ccccc2)cc1 | > 100 µM (inactive) | > 100 µM (inactive) | > 100 µM (inactive) | > 100 µM (inactive) | > 100 µM (inactive) | – | > 100 µM (inactive) | > 100 µM (inactive) | > 100 µM (inactive) | > 100 µM (inactive) | > 100 µM (inactive) | – | > 100 µM (inactive) | > 100 µM (inactive) | > 100 µM (inactive) | > 100 µM (inactive) | 24.9 µM (inactive) |
| Cc1ccc(Cn2c(C)nc3c2C(=O)c2ccccc2C3=O)cc1 | 17.6 µM (inactive) | 3.14 µM (inactive) | – | 3.33 µM (inactive) | 13.3 µM (inactive) | 4.56 µM (inactive) | 4.63 µM (inactive) | – | 5.45 µM (inactive) | 14 µM (inactive) | 4.52 µM (inactive) | 0.834 µM (active) | 0.597 µM (active) | 3.05 µM (inactive) | 3.43 µM (inactive) | 13 µM (inactive) | – |
| COc1cc(Nc2nc3ccccc3nc2-c2cccs2)cc(OC)c1OC | 36.4 µM (inactive) | – | – | 50.4 µM (inactive) | – | – | 21 µM (inactive) | > 100 µM (inactive) | – | 39.4 µM (inactive) | – | – | 45.6 µM (inactive) | > 10 µM (inactive) | 25.8 µM (inactive) | 35.8 µM (inactive) | 26.9 µM (inactive) |
| CC1(C)CC(/C=C2/OC(=O)c3ccccc32)=C(C#N)C(=O)O1 | 0.294 µM (active) | > 100 µM (inactive) | – | > 100 µM (inactive) | 18.6 µM (inactive) | > 100 µM (inactive) | > 100 µM (inactive) | > 100 µM (inactive) | > 100 µM (inactive) | > 100 µM (inactive) | > 100 µM (inactive) | > 100 µM (inactive) | > 100 µM (inactive) | > 100 µM (inactive) | > 100 µM (inactive) | – | > 100 µM (inactive) |
| COc1ccc(/C(=N\NC(=O)C(N)=O)C(c2ccc(OC)cc2)C2(O)C(=O)Nc3c(Cl)cccc32)cc1 (stereo not given) | > 100 µM (inactive) | – | – | > 100 µM (inactive) | > 100 µM (inactive) | > 100 µM (inactive) | > 100 µM (inactive) | > 100 µM (inactive) | > 100 µM (inactive) | > 100 µM (inactive) | > 100 µM (inactive) | – | 58.6 µM (inactive) | > 100 µM (inactive) | > 100 µM (inactive) | > 100 µM (inactive) | > 100 µM (inactive) |
| Cc1cc(O)nc(NNC(C#N)c2ccco2)n1 (stereo not given) | – | > 100 µM (inactive) | – | > 100 µM (inactive) | > 100 µM (inactive) | > 100 µM (inactive) | > 100 µM (inactive) | > 100 µM (inactive) | > 100 µM (inactive) | > 100 µM (inactive) | > 100 µM (inactive) | > 100 µM (inactive) | > 100 µM (inactive) | > 100 µM (inactive) | > 100 µM (inactive) | > 100 µM (inactive) | > 100 µM (inactive) |
| CC(=O)Oc1cc(OC(C)=O)c(OC(C)=O)c2c1CC1C(=O)C3(CCc4ccccc43)C(=O)C1C2 (stereo not given) | 6.7 µM (inactive) | – | – | 17.9 µM (inactive) | 11.7 µM (inactive) | – | 19.5 µM (inactive) | – | 19.8 µM (inactive) | 21.1 µM (inactive) | – | 9.2 µM (inactive) | 6.67 µM (inactive) | 14.2 µM (inactive) | > 10 µM (inactive) | 17.4 µM (inactive) | 0.555 µM (active) |
| O=C(O)CCCc1cc2c(s1)-c1cccc3cccc-2c13 | 24.3 µM (inactive) | 21 µM (inactive) | – | 36.2 µM (inactive) | 76.9 µM (inactive) | 19.4 µM (inactive) | 36.6 µM (inactive) | > 100 µM (inactive) | 47.3 µM (inactive) | 33.3 µM (inactive) | – | 31.9 µM (inactive) | 21.9 µM (inactive) | 39.4 µM (inactive) | 39.6 µM (inactive) | 49 µM (inactive) | 21.5 µM (inactive) |
| CCCCCCCCCCCCCC(=O)OCC(C[As](=O)(O)O)OC(=O)CCCCCCCCCCCCC (stereo not given) | > 100 µM (inactive) | > 100 µM (inactive) | > 100 µM (inactive) | 18.6 µM (inactive) | > 100 µM (inactive) | > 100 µM (inactive) | > 100 µM (inactive) | – | > 100 µM (inactive) | > 100 µM (inactive) | > 100 µM (inactive) | > 100 µM (inactive) | – | > 100 µM (inactive) | > 100 µM (inactive) | > 100 µM (inactive) | > 100 µM (inactive) |
| COc1ccccc1-n1c(C)nc2ccccc2c1=O | > 100 µM (inactive) | > 100 µM (inactive) | > 100 µM (inactive) | > 100 µM (inactive) | > 100 µM (inactive) | > 100 µM (inactive) | > 100 µM (inactive) | > 100 µM (inactive) | > 100 µM (inactive) | > 100 µM (inactive) | > 100 µM (inactive) | > 100 µM (inactive) | > 100 µM (inactive) | > 100 µM (inactive) | > 100 µM (inactive) | > 100 µM (inactive) | – |
| Cc1cc(O)nc(NNC(C#N)c2cccc([N+](=O)[O-])c2)n1 (stereo not given) | – | > 100 µM (inactive) | – | > 100 µM (inactive) | > 100 µM (inactive) | > 100 µM (inactive) | > 100 µM (inactive) | > 100 µM (inactive) | > 100 µM (inactive) | > 100 µM (inactive) | > 100 µM (inactive) | > 100 µM (inactive) | > 100 µM (inactive) | > 100 µM (inactive) | > 100 µM (inactive) | > 100 µM (inactive) | > 100 µM (inactive) |
| COc1cc(C(C#N)NNC(=O)Cc2ccccc2)cc(OC)c1OC (stereo not given) | – | > 100 µM (inactive) | – | > 100 µM (inactive) | > 100 µM (inactive) | > 100 µM (inactive) | > 100 µM (inactive) | > 100 µM (inactive) | > 100 µM (inactive) | > 100 µM (inactive) | > 100 µM (inactive) | > 100 µM (inactive) | > 100 µM (inactive) | > 100 µM (inactive) | > 100 µM (inactive) | > 100 µM (inactive) | > 100 µM (inactive) |
| O=C1C=C(Nc2cc(Cl)ccc2Cl)c2ccccc2C1=O | 27.5 µM (inactive) | – | 26.6 µM (inactive) | 29.3 µM (inactive) | 47.6 µM (inactive) | 23 µM (inactive) | 35.9 µM (inactive) | 39 µM (inactive) | 64.1 µM (inactive) | 26.1 µM (inactive) | – | 13.5 µM (inactive) | – | 16 µM (inactive) | 64.3 µM (inactive) | – | 20.9 µM (inactive) |
| CN(Cc1ccccc1)C1(N(C)Cc2ccccc2)CC1 | > 100 µM (inactive) | > 100 µM (inactive) | > 100 µM (inactive) | > 100 µM (inactive) | > 100 µM (inactive) | > 100 µM (inactive) | > 100 µM (inactive) | > 100 µM (inactive) | > 100 µM (inactive) | > 100 µM (inactive) | > 100 µM (inactive) | > 100 µM (inactive) | > 100 µM (inactive) | > 100 µM (inactive) | > 100 µM (inactive) | > 100 µM (inactive) | – |
| COC12C=CC(CC1)c1c(O)ccc(O)c12 (stereo not given) | 99.3 µM (inactive) | 16.8 µM (inactive) | > 100 µM (inactive) | 27.5 µM (inactive) | 19.6 µM (inactive) | > 95.1 µM (inactive) | > 92.5 µM (inactive) | > 100 µM (inactive) | > 100 µM (inactive) | > 100 µM (inactive) | 45 µM (inactive) | 22.6 µM (inactive) | – | 33 µM (inactive) | > 31.6 µM (inactive) | > 49.7 µM (inactive) | 50.8 µM (inactive) |
| CCOC1c2cc(C(C)C)c(O)c(O)c2[C@@]23CCCC(C)(C)C2C1OC3=O (stereo not given in full) | > 100 µM (inactive) | 30.6 µM (inactive) | – | > 100 µM (inactive) | – | – | 82.4 µM (inactive) | > 100 µM (inactive) | > 100 µM (inactive) | > 100 µM (inactive) | 70.3 µM (inactive) | > 100 µM (inactive) | > 100 µM (inactive) | > 100 µM (inactive) | > 100 µM (inactive) | > 100 µM (inactive) | 40.6 µM (inactive) |
| C/C(=C(/C)c1cc[n+](C)cc1)c1cc[n+](C)cc1 | – | 18.8 µM (inactive) | > 75 µM (inactive) | – | 69.8 µM (inactive) | > 75 µM (inactive) | > 75 µM (inactive) | > 75 µM (inactive) | 34.4 µM (inactive) | > 75 µM (inactive) | > 75 µM (inactive) | 54.8 µM (inactive) | 43.6 µM (inactive) | > 75 µM (inactive) | > 75 µM (inactive) | > 75 µM (inactive) | 28 µM (inactive) |
